Assay results published in patent US20080131511A1, “Pharmaceutical Composition for Treatment of Tear and Salivary Fluid Drying” (Astellas Pharma, Inc., priority 2004, published 2008).

Assays:
Type in all cases: in vivo, mouse (male Balb/c)
[1] = system: ornithine decarboxylase (ODC) activity of parotid salivary gland; assay: Ornithine decarboxylase activity of parotid salivary gland, subcutaneous continuous administration; details: mice; for Glandular cell growth Salivary gland: ODC activity 10 hours after implantation
Method: Male Balb/c mice were used in the test.
The compound A was dissolved in physiological saline to a concentration of 0.625, 1.25, 2.5, 5.0, 10 or 20 mg/200 μl, and filled each pump (Alzet mini-osmotic pump 2001D, 8 μl/h, 1 day; DURECT Corporation) with about 200 μl portions It means, that is, each pump releases at a rate of 0.025, 0.05, 0.1, 0.2, 0.4 or 0.8 mg compound A/h, respectively. About 5 mm of dorsal epidermis of a mouse anesthetized with diethyl ether was incised, the osmotic pump already filled with the compound A was subcutaneously implanted, and then the skin was stitched. Secreted amounts of salivary and tear fluid and sweating were periodically measured from just before the implantation of pump until 32 hours after the administration. The ornithine decarboxylase activity was measured 10 hours after the implantation.
Pilocarpine was dissolved in physiological saline to a concentration of 0.039, 0.078, 0.16 or 0.31 mg/200 μl, or cevimeline to a concentration of 0.16, 0.31, 0.63 or 1.3 mg/200 μl, and filled the osmotic pump (Alzet mini-osmotic pump 2001 D, 8 μl/h, 1 day; DURECT Corporation) with about 200 μl portions. It means, that is, each pump releases at a rate of 0.00156, 0.00312, 0.0064 or 0.0124 mg/h (pilocarpine) or 0.0064, 0.0124, 0.0252 or 0.05 mg/h (cevimeline). About 5 mm of dorsal epidermis of a mouse anesthetized with diethyl ether was incised, the osmotic pump already filled with pilocarpine or cevimeline was subcutaneously implanted, and then the skin was stitched. Secreted amounts of salivary and tear fluid and sweating were periodically measured from just before the implantation of pump until 32 hours after the administration. The ornithine decarboxylase activity was measured 10 hours after the implantation.
Thus, it can be easily analogized that the ODC activity becomes a useful index of cell growth and function of the exocrine gland. Accordingly, the ability of each drug to activate glandular tissue was evaluated by measuring ODC activity of parotid salivary gland and extra-orbital lacrimal gland.
The amount of ^14CO2 formed from L-^14C-ornithine was used as the index of ODC activity.
A mouse anesthetized with diethyl ether was sacrificed by bleeding, and left and right parotid salivary glands and extra-orbital lacrimal glands were isolated. After removing the attached connective tissue and fat, the isolated glandular tissues homogenized in 1.5 ml of a homogenate buffer (25 mM Tris-HCl buffer (pH 7.4) containing 0.1 mM ethylenediaminetetraacetic acid, 0.4 mM pyridoxal phosphate, 5 mM dithiothreitol and 0.1% Brij 35®) using a Potter type homogenizer and then centrifuged at 4° C., 15,000 g for 30 minutes, and the supernatant was used as the enzyme fraction. Reaction of the enzyme and substrate was carried out by adding 100 μl of a substrate solution (the homogenate buffer containing 300 μM DL-ornithine and 5 μCi L-^14C-ornithine) to 900 μl of the enzyme liquid whose protein concentration had been adjusted to 2.5 mg/ml and incubating at 37° C. for 1 hour in a sealed tube, and the reaction was terminated by the addition of 100 μl of 2 M H2SO4. The ^14CO2 generated by the reaction was captured by 150 μl of 1 N NaOH soaked in a glass filter. Radioactivity of the ^14CO2 captured on the glass filter was detected using a liquid scintillation counter. The enzyme activity (pmol ^14CO2/mg protein/hour) was calculated from the measured results.
All of the test results were expressed as fold increases of the reactions of the drug-administered group versus those of the vehicle-administered group, and comparison between the drug-administered groups and the vehicle-administered group was carried out using Dunnett's t-test. P<0.05 was considered significant. Results

[2] = system: ornithine decarboxylase (ODC) activity of extra-orbital lacrimal gland; assay: Ornithine decarboxylase activity of extra-orbital lacrimal gland after subcutaneous bolus administration; details: mice
Method: (§1) Male Balb/c mice were used in the test. […] Also, the growth acceleration action was measured 6 hours after the administration. […] Also, the growth acceleration action was measured 6 hours after the administration. […] Thus, it can be easily analogized that the ODC activity becomes a useful index of cell growth and function of the exocrine gland. Accordingly, the ability of each drug to activate glandular tissue was evaluated by measuring ODC activity of parotid salivary gland and extra-orbital lacrimal gland. The amount of ^14CO2 formed from L-^14C-ornithine was used as the index of ODC activity. A mouse anesthetized with diethyl ether was sacrificed by bleeding, and left and right parotid salivary glands and extra-orbital lacrimal glands were isolated. After removing the attached connective tissue and fat, the isolated glandular tissues homogenized in 1.5 ml of a homogenate buffer (25 mM Tris-HCl buffer (pH 7.4) containing 0.1 mM ethylenediaminetetraacetic acid, 0.4 mM pyridoxal phosphate, 5 mM dithiothreitol and 0.1% Brij 35®) using a Potter type homogenizer and then centrifuged at 4° C., 15,000 g for 30 minutes, and the supernatant was used as the enzyme fraction. […] The ^14CO2 generated by the reaction was captured by 150 μl of 1 N NaOH soaked in a glass filter. Radioactivity of the ^14CO2 captured on the glass filter was detected using a liquid scintillation counter. The enzyme activity (pmol ^14CO2/mg protein/hour) was calculated from the measured results. All of the test results were expressed as fold increases of the reactions of the drug-administered group versus those of the vehicle-administered group, and comparison between the drug-administered groups and the vehicle-administered group was carried out using Dunnett's t-test. P<0.05 was considered significant. Results

[3] = system: ornithine decarboxylase (ODC) activity of parotid salivary gland; assay: Ornithine decarboxylase activity of parotid salivary gland after subcutaneous bolus administration; details: mice
Method: as §1

[4] = s.c. bolus 1 mg/kg, ODC activity 6 hours after administration
[5] = s.c. bolus 3 mg/kg, ODC activity 6 hours after administration
[6] = s.c. bolus 10 mg/kg, ODC activity 6 hours after administration (Table 3)
[7] = s.c. bolus 10 mg/kg, ODC activity 6 hours after administration (Table 4)
[8] = s.c. bolus 30 mg/kg, ODC activity 6 hours after administration (Table 4)
[9] = s.c. bolus 100 mg/kg, ODC activity 6 hours after administration (Table 4)
[10] = s.c. bolus 10 mg/kg, ODC activity 6 hours after administration
[11] = s.c. bolus 30 mg/kg, ODC activity 6 hours after administration
[12] = s.c. bolus 100 mg/kg, ODC activity 6 hours after administration

CC[C@@H]1C(=O)OC[C@@H]1Cc1cncn1C [pilocarpine]
Glandular cell growth Salivary gland ([1]; s.c. osmotic pump 0.16 mg (0.0064 mg/h)): 0.42 ± 0.06 fold increase vs. vehicle group | Glandular cell growth Salivary gland ([1]; s.c. osmotic pump 0.31 mg (0.0124 mg/h)): 1.1 ± 0.20 fold increase vs. vehicle group | Glandular cell growth Lacrimal gland [2, 4]: 0.69 ± 0.09 fold increase vs. the vehicle group | Glandular cell growth Lacrimal gland [2, 5]: 0.95 ± 0.23 fold increase vs. the vehicle group | Glandular cell growth Lacrimal gland [2, 6]: 2.8 ± 0.61 fold increase vs. the vehicle group | Glandular cell growth Salivary gland [3, 4]: 1.4 ± 0.48 fold increase vs. the vehicle group | Glandular cell growth Salivary gland [3, 5]: 1.3 ± 0.54 fold increase vs. the vehicle group | Glandular cell growth Salivary gland [3, 6]: 3.2 ± 1.1 fold increase vs. the vehicle group

CC1OC2(CS1)CN1CCC2CC1 (stereo not drawn) [cevimeline]
glandular cell ODC activity acceleration action ([1]; s.c. continuous administration): not confirmed even at 1.25 mg | Glandular cell growth Salivary gland ([1]; s.c. osmotic pump 0.63 mg (0.0252 mg/h)): 0.87 ± 0.05 fold increase vs. the solvent group | Glandular cell growth Salivary gland ([1]; s.c. osmotic pump 1.25 (0.05 mg/h)): 0.45 ± 0.12 fold increase vs. the solvent group | Glandular cell growth Lacrimal gland [2, 7]: 1.2 ± 0.90 fold increase vs. the vehicle group | Glandular cell growth Lacrimal gland [2, 8]: 1.2 ± 0.52 fold increase vs. the vehicle group | Glandular cell growth Lacrimal gland [2, 9]: 1.7 ± 0.79 fold increase vs. the vehicle group | Glandular cell growth Salivary gland [3, 7]: 1.7 ± 065 fold increase vs. the vehicle group | Glandular cell growth Salivary gland [3, 8]: 1.1 ± 0.33 fold increase vs. the vehicle group | Glandular cell growth Salivary gland [3, 9]: 1.1 ± 0.33 fold increase vs. the vehicle group

C=C1CC2(CCN(C)CC2)O[C@H]1C [compound A, (−)-(S)-2,8-dimethyl-3-methylene-1-oxa-8-azaspiro[4.5]decane]
Glandular cell growth Salivary gland ([1]; s.c. osmotic pump 1.25 mg (0.05 mg/h)): 1.56 ± 0.33 fold increase vs. the vehicle group | Glandular cell growth Salivary gland ([1]; s.c. osmotic pump 2.5 mg (0.1 mg/h)): 6.9 ± 2.3 fold increase vs. the vehicle group | Glandular cell growth Salivary gland ([1]; s.c. osmotic pump 5 mg (0.2 mg/h)): 9.6 ± 1.8 fold increase vs. the vehicle group | Glandular cell growth Salivary gland ([1]; s.c. osmotic pump 10 mg (0.4 mg/h)): 9.8 ± 2.6 fold increase vs. the vehicle group | Glandular cell growth Lacrimal gland [2, 10]: 0.99 ± 0.24 fold increase vs. the vehicle group | Glandular cell growth Lacrimal gland [2, 11]: 2.2 ± 0.43 fold increase vs. the vehicle group | Glandular cell growth Lacrimal gland [2, 12]: 2.3 ± 0.07 fold increase vs. the vehicle group | Glandular cell growth Salivary gland [3, 10]: 0.71 ± 0.05 fold increase vs. the vehicle group | Glandular cell growth Salivary gland [3, 11]: 0.72 ± 0.11 fold increase vs. the vehicle group | Glandular cell growth Salivary gland [3, 12]: 2.8 ± 0.72 fold increase vs. the vehicle group
